Test results: US5872138A, “Thrombin inhibitors” (Merck & Co., Inc., priority 1997, dated 1999)
pKi: −log10 of the molar value. Structures can show the parent of a compound that is named as a salt.

target: T1, human a-thrombin (Homo sapiens, UniProt P00734); assay: In vitro assay for determining proteinase inhibition (thrombin Ki); assay type: biochemical; conditions: Table 2; 25° C., pH 7.4; read-out: Ki (thr)
T1 construct: human a-thrombin
Description: In vitro assay for determining proteinase inhibition Assays of human a-thrombin and human trypsin were performed at 25° C. in 0.05M TRIS buffer pH 7.4, 0.15M NaCl, 0.1% PEG. Trypsin assays also contained 1 mM CaCl2. In assays wherein rates of hydrolysis of a p-nitroanilide (pna) substrate were determined, a Thermomax 96-well plate reader was used to measure (at 405 nm) the time dependent appearance of p-nitroaniline. […] Activity assays were performed by diluting a stock solution of substrate at least tenfold to a final concentration 0.5 Km into a solution containing enzyme or enzyme equilibrated with inhibitor. Times required to achieve equilibration between enzyme and inhibitor were determined in control experiments. Initial velocities of product formation in the absence (Vo) or presence of inhibitor (Vi) were measured. Assuming competitive inhibition, and that unity is negligible compared Km /[S], […] (where [S], [I], and e respectively represent the total concentrations, of substrate, inhibitor and enzyme), the equilibrium constant (Ki) for dissociation of the inhibitor from the enzyme can be obtained from the dependence of Vo /Vi on [I] shown in equation 1.

Row | Compound | pKi
1 | c1ccc(C(COc2ccc(CNc3ccncc3)cc2)c2ccccc2)cc1 [4-[4-(2,2-diphenylethoxy)benzylamino]pyridine] | < 6.00
2 | c1ccc(C(Oc2ccc(CNc3ccncc3)cc2)C2CCCCC2)cc1 (stereo not drawn) | < 6.00
3 | CCC(Oc1ccc(CNc2ccncc2)cc1)c1ccccc1 (stereo not drawn) | < 6.00
4 | CC(Oc1ccc(CNc2ccncc2)cc1)c1ccccc1 (stereo not drawn) | < 6.00
5 | c1ccc(CSc2ccc(CNc3ccncc3)cc2)cc1 | < 6.00
6 | c1cc(NCc2ccc(OC(C3CCCCC3)C3CCCCC3)cc2)ccn1 [4-[4-(dicyclohexylmethoxy)-benzylamino]pyridine] | < 6.00
7 | CC(C)C(Oc1ccc(CNc2ccncc2)cc1)c1ccc2c(c1)OCO2 (stereo not drawn) | < 6.00
8 | COC(=O)C(Oc1ccc(CNc2ccncc2)cc1)c1ccccc1 (stereo not drawn) | < 6.00
9 | c1cc(NCc2ccc(NCC3CCCCC3)cc2)ccn1 | < 6.00
10 | CC(C)C(Oc1ccc(CNc2ccncc2)cc1)c1ccccc1 (stereo not drawn) [4-[4-(2-methyl-1-phenylpropoxy)benzylamino]pyridine] | < 6.00
11 | c1ccc(C(Oc2ccc(CNc3ccncc3)cc2)c2ccccc2)cc1 [N-4-(1,1-diphenylmethoxy)benzylaminopyridine] | < 6.00
12 | c1cc(NCc2ccc(OCCC3CCCCC3)cc2)ccn1 [4-[4-(2-cyclohexylethoxy)benzylamino]pyridine] | < 6.00
13 | NC(=O)C(Oc1ccc(CNc2ccncc2)cc1)c1ccccc1 (stereo not drawn) | < 6.00
14 | c1ccc(CNc2ccc(CNc3ccncc3)cc2)cc1 | < 6.00
15 | c1cc(NCc2ccc(OCc3ccc4c(c3)OCO4)cc2)ccn1 [4-[4-(3,4-methylenedioxybenzyloxy)benzylamino]pyridine] | < 6.00
16 | c1ccc(COc2ccc(CNc3ccncc3)cc2)cc1 [N-4-(4-benzyloxybenzyl)aminopyridine] | < 6.00
17 | c1cc(NCc2ccc(OC(C3CCCCC3)C3CC3)cc2)ccn1 (stereo not drawn) | 6.00 to 7.00
18 | c1cc(NCc2ccc(OCCCCC3CCCCC3)cc2)ccn1 | < 6.00
19 | c1cc(NCc2ccc(OCC(C3CCCCC3)C3CCCCC3)cc2)ccn1 | < 6.00
20 | c1cc(NCc2ccc(OCC3CCCCC3)cc2)ccn1 [N-4-(cyclohexylmethoxy)benzylaminopyridine] | < 6.00
21 | c1ccc(CC(Cc2ccccc2)Oc2ccc(CNc3ccncc3)cc2)cc1 [4-[4-(1,3-diphenyl-2-propoxy)benzylamino]pyridine] | < 6.00

same assay, conditions: Table 3; 25° C., pH 7.4; read-out: Ki(th)

Row | Compound | pKi
22 | OCCc1cc(CNc2ccncc2)ccc1OCC1CCCCC1 | 5.36
23 | CCCc1cc(CNc2ccncc2)c(Cc2ccccc2)cc1OCC1CCCCC1 | < 6.05
24 | Nc1cc(CNc2ccncc2)ccc1OCC1CCCCC1 [4-{[3-amino-4-(cyclohexylmethyloxy)phenyl]methylamino}pyridine dihydrochloride] | 5.54
25 | CCCc1cc(CNc2ccncc2)ccc1OCc1ccccc1 | 5.74
26 | CCCc1cc(CNc2ccncc2)ccc1OC(Cc1ccccc1)C1CC1 (stereo not drawn) | 5.89
27 | CCCc1cc(CNc2ccncc2)ccc1OCC12CC3CC(CC(C3)C1)C2 | 6.66
28 | Oc1cc(OCC2CCCCC2)ccc1CNc1ccncc1 | 5.80
29 | c1ccc(COc2cc(OCC3CCCCC3)ccc2CNc2ccncc2)cc1 [4-(4-cyclohexylmethyloxy-2-benzyloxybenzyl)aminopyridine] | 5.74
30 | CCCc1cc(CNc2ccncc2)ccc1OCc1ccc(OC)cc1 | 5.74
31 | c1ccc(Cc2cc(OCC3CCCCC3)ccc2CNc2ccncc2)cc1 [4'-(4-cyclohexylmethyloxy-2-benzylphenylmethyl)-aminopyridine] | 5.74
32 | CC(C)Cc1cc(CNc2ccncc2)ccc1OCC1CCCCC1 | 5.82
33 | CCCc1cc(CNc2ccncc2)cc(CO)c1OCC1CCCCC1 | 5.42
34 | c1ccc(-c2cc(OCC3CCCCC3)ccc2CNc2ccncc2)cc1 | 5.19
35 | C=Cc1cc(CNc2ccncc2)ccc1OCC1CCCCC1 | 6.59
36 | COc1cc(OCC2CCCCC2)ccc1CNc1ccncc1 | 5.49
37 | CCCc1cc(CNc2ccncc2)ccc1OCC1CCCCCC1 | 6.13
38 | CCCc1cc(CNc2ccncc2)ccc1OC(Cc1ccccc1)C(C)C (stereo not drawn) | 6.30
39 | CCCc1cc(CNc2ccncc2)ccc1OC(c1ccccc1)c1ccccc1 | 6.49
40 | c1cc(NCc2ccc(OCC3CCCCC3)c(C3CC3)c2)ccn1 | 5.49
41 | CCc1cc(CNc2ccncc2)ccc1OCC1CCCCC1 [4-{[3-ethyl-4-(cyclohexylmethyloxy)phenyl]methylamino}pyridine] | 6.19
42 | CC(C)CCc1cc(CNc2ccncc2)ccc1OCC1CCCCC1 [drawing 160] | 5.49
43 | CCCc1cc(CNc2ccncc2)ccc1OCC1CCCCC1 [4-{[3-propyl-4-(cyclohexylmethyloxy)phenyl]methylamino}pyridine] | 6.30
44 | CCCc1cc(CNc2ccncc2)ccc1OC(c1ccccc1)C1CC1 (stereo not drawn) | 6.10

same assay, conditions: Table 4; 25° C., pH 7.4; read-out: Ki (thr)

Row | Compound | pKi
45 | CNCc1cc(CNc2ccncc2)ccc1OCC1CCCCC1 | 5.00 to 6.00
46 | CCCc1cc(CNc2ccncc2)ccc1OCCC(C)C [i-butyl] | 5.00 to 6.00
47 | CCCc1cc(CNc2ccncc2)ccc1OCc1cccc2ccccc12 | 5.00 to 6.00
48 | CCCc1cc(CNc2ccncc2)ccc1OCC1CC2C=CC1C2 (stereo not drawn) | 6.00 to 7.00
49 | CCCc1cc(CN(CC)c2ccncc2)ccc1OCC1CCCCC1 | < 5.00
50 | NCc1cc(CNc2ccncc2)ccc1OCC1CCCCC1 | < 5.00
51 | CC(C)(C)OCCc1cc(CNc2ccncc2)ccc1OCC1CCCCC1 | < 5.00
52 | CCCc1cc(CNc2ccncc2C)ccc1OCC1CCCCC1 | 5.00 to 6.00
53 | CC(C)CCc1cc(CNc2ccncc2)ccc1OCC1CCCCC1 [drawing 174] | 5.00 to 6.00
54 | CCCc1cc(CNc2ccncc2)cc(CN2CCCCC2)c1OCC1CCCCC1 | 5.00 to 6.00
55 | OCc1cc(CNc2ccncc2)ccc1OCC1CCCCC1 | < 5.00
56 | c1ccc(-c2cc(CNc3ccncc3)ccc2OCC2CCCCC2)cc1 | < 5.00
57 | CNC(=O)c1cc(CNc2ccncc2)ccc1OCC1CCCCC1 | < 5.00

same assay, conditions: Table 5; 25° C., pH 7.4; read-out: Ki(thr)

Row | Compound | pKi
58 | N=C(N)N1CCN(S(=O)(=O)c2ccc(OCc3ccccc3)cc2)CC1 [N-((4-benzyloxy)phenylsulfonyl)-N'-aminomethyliminopiperazine] | 5.00 to 6.00
59 | CCc1cc(S(=O)(=O)N2CCN(C(=N)N)CC2)ccc1OCC1CCCCC1 [N-((4-cyclohexylmethyloxy)-3-ethyl-phenylsulfonyl)-N'-aminomethyliminopiperazine] | 6.00 to 7.00

same assay, conditions: Table 6; 25° C., pH 7.4; read-out: Ki(thr)

Row | Compound | pKi
60 | CCc1cc(Cc2ccc(C(=N)N)cc2)ccc1OCC1CCCCC1 | 7.11
61 | N=C(N)c1ccc(Cc2ccc(OCc3ccccc3)cc2)cc1 [4-{[4-(Phenylmethyloxy)phenyl]methyl}benzamidine hydrochloride] | 6.41
62 | CCCc1cc(Cc2ccc(C(=N)N)cc2)ccc1OCC1CCCCC1 | 6.52
63 | CCc1cc(Cc2ccc(C(=N)N)cc2)ccc1OC(C(C)C)C1CCCCC1 (stereo not drawn) | 7.70
64 | Cc1cc(Cc2ccc(C(=N)N)cc2)ccc1OC(C(C)C)C1CCCCC1 (stereo not drawn) | 7.70
65 | Cc1cc(Cc2ccc(C(=N)N)cc2)ccc1OCC1CCCCC1 | 6.99
66 | N=C(N)c1ccc(Cc2ccc(OCC3CCCCC3)cc2)cc1 [4-{[4-(Cyclohexylmethyloxy)phenyl]methyl}-benzamidine hydrochloride] | 6.77
67 | CCCc1cc(Cc2ccc(C(=N)N)cc2)ccc1OC(C(C)C)C1CCCCC1 (stereo not drawn) | 6.55

same assay, conditions: Table 7; 25° C., pH 7.4; read-out: Ki(thr)

Row | Compound | pKi
68 | c1ccc(OCc2ccc(CNc3ccncc3)cc2)cc1 | 5.00 to 6.00
69 | c1cc(NCc2ccc(CCC3CCCCC3)cc2)ccn1 | 5.00 to 6.00

same assay, conditions: Table I; 25° C., pH 7.4; read-out: Ki (thr)

Row | Compound | pKi
70 | Nc1cc[n+](Cc2ccc(OC(C3CCCCC3)C3CCCCC3)cc2)cc1 [4-amino-1-[4-(dicyclohexylmethoxy)benzyl]pyridinium bromide] | 6.00 to 7.00
71 | Nc1cc[n+](Cc2ccc(OCC(C3CCCCC3)C3CCCCC3)cc2)cc1 [4-amino-1-(4-(2,2-dicyclohexyl-1-ethoxy)benzyl)pyridinium bromide] | 6.00 to 7.00
72 | 4-amino-1-(4-(1-phenyl-1-carbomethoxy)methoxybenzyl)pyridinium bromide | 6.00 to 7.00
73 | Nc1cc[n+](Cc2ccc(-c3ccccc3)cc2)cc1 | < 6.00
74 | COc1cc(C[n+]2ccc(N)cc2)ccc1OCc1ccccc1 | < 6.00
75 | Nc1cc[n+](Cc2ccc(OCc3ccccc3)cc2)cc1 | 6.00 to 7.00
76 | Nc1cc[n+](Cc2ccc(OCC(c3ccccc3)c3ccccc3)cc2)cc1 [4-amino-1-[4-(2,2-diphenylethoxy)benzyl]pyridinium bromide] | 6.00 to 7.00
77 | Nc1cc[n+](Cc2ccc(OCc3ccccc3)c(OCc3ccccc3)c2)cc1 | < 6.00
78 | Nc1cc[n+](Cc2ccc(OCc3ccccc3)nc2)cc1 | < 6.00
79 | Nc1cc[n+](Cc2ccc(OCc3ccccc3)cn2)cc1 | < 6.00
80 | Nc1cc[n+](Cc2ccc(OC(c3ccccc3)c3ccccc3)cc2)cc1 [4-amino-1-(4-(1,1-diphenylmethoxy)benzylpyridinium bromide] | > 7.00
81 | Nc1cc[n+](Cc2ccc(OC(CCc3ccccc3)c3ccccc3)cc2)cc1 (stereo not drawn) [4-amino-1-[4-(1,3-diphenyl-1-propoxy)benzyl]pyridinium bromide] | 6.00 to 7.00
